The values below are quoted from earlier work in US8841262B2, “Agent for inhibiting peritoneal membrane thickening” (CCI Corporation, priority 2009, dated 2014).

Data set [1] relates to vascular endothelial growth factor (VEGF). Conditions: administration of TNP-470, reported in Non-Patent Literature 1.
Data set [2] relates to peritoneal membrane thickening. Conditions: ganciclovir infused into the abdominal cavity, in 2 weeks; reported in Non-Patent Literature 3.

For the compound `CO[C@@H]1[C@H](OC(=O)NC(=O)CCl)CC[C@]2(CO2)[C@H]1[C@@]1(C)O[C@@H]1CC=C(C)C` [TNP-470], in data set [1], the myofibroblastic cell proliferation result was “suppression” and the neoangiogenesis entry is reported as “inhibition”.

On to `Nc1nc(O)c2ncn(COC(CO)CO)c2n1` [ganciclovir], for which, in data set [2], the “peritoneal membrane thickening after chlorhexidine” value is listed as “alleviated”.
